Molecules are shown by their SMILES.

For the first experiment, the system named is GSK-3α/β. As to the kind of experiment: GSK-3α/β kinase assay. Type of experiment: biochemical, porcine.
Conditions: not given
For `O=C1Nc2c(Cl)cccc2/C1=C1/Nc2ccccc2/C1=N\O` [7CIO, (2′Z,3′E)-7-chloroindirubin-3′-oxime], the “inhibitory activity on GSK-3 (in words)” value was “weak and gradually decreasing inhibitory activity”.
Still for that read-out and setting: the same measure for `O=C1Nc2c(F)cccc2/C1=C1/Nc2ccccc2/C1=N\O` [7FIO, (2′Z,3′E)-7-fluoroindirubin-3′-oxime]: “weak and gradually decreasing inhibitory activity”.
Still for that read-out and setting: the entry for `O=C1Nc2c(I)cccc2C1=C1Nc2ccccc2C1=NO` [7IIO, (2′Z,3′E)-7-iodoindirubin-3′-oxime] is “weak and gradually decreasing inhibitory activity”; for `O=C1Nc2c(Br)cccc2/C1=C1/Nc2ccccc2/C1=N\OCCN1CCOCC1` [Compound 43, (2′Z,3′E)-7-bromoindirubin-3′-[O-(2-morpholin-1-yl-ethyl)-oxime]] it is “exception”.

Still in this experiment, the particulars now being: 15 μM ATP.
For the molecule `O=C1Nc2c(Cl)cccc2/C1=C1/Nc2ccccc2/C1=N\O` [7CIO, (2′Z,3′E)-7-chloroindirubin-3′-oxime], half-maximal inhibition (IC50) was put at 21 µM.
Same read-out and setting: the same measure for `O=C1Nc2c(F)cccc2/C1=C1/Nc2ccccc2/C1=N\O` [7FIO, (2′Z,3′E)-7-fluoroindirubin-3′-oxime]: 0.27 µM; for `O=C1Nc2c(I)cccc2C1=C1Nc2ccccc2C1=NO` [7IIO, (2′Z,3′E)-7-iodoindirubin-3′-oxime]: 16 µM.

In the next experiment the test system is tyrosine 705-phosphorylated STAT3. As to the kind of experiment: Tyrosine 705-phosphorylated STAT3 in MDA-MB-231 cells. Format: cell-based, human. Particulars: 25 μM, 4 h.
For the molecule `O=C1Nc2cc(Br)ccc2C1=C1Nc2ccccc2C1=NO` [6BIO, 6-bromoindirubin-3′-oxime], the “basal level of tyrosine 705-phosphorylated STAT3” value is “down-regulated”.

In the next experiment the test system is CDK1/cyclin B. As to the kind of experiment: CDK1/cyclin B kinase assay.
Conditions: not given
Type of experiment: biochemical, starfish (Marthasterias glacialis).
In the case of `O=C1Nc2c(Cl)cccc2/C1=C1/Nc2ccccc2/C1=N\O` [7CIO, (2′Z,3′E)-7-chloroindirubin-3′-oxime], the “inhibitory activity on CDK1/cyclin B (in words)” value is “weak and gradually decreasing inhibitory activity”.
On the same count and under the same terms, the same measure for `O=C1Nc2c(F)cccc2/C1=C1/Nc2ccccc2/C1=N\O` [7FIO, (2′Z,3′E)-7-fluoroindirubin-3′-oxime]: “weak and gradually decreasing inhibitory activity”.
The same measure, in the same setting: the same measure for `O=C1Nc2c(I)cccc2C1=C1Nc2ccccc2C1=NO` [7IIO, (2′Z,3′E)-7-iodoindirubin-3′-oxime]: “weak and gradually decreasing inhibitory activity”.

Still in this experiment, the particulars now being: 15 μM ATP.
Take `O=C1Nc2c(Cl)cccc2/C1=C1/Nc2ccccc2/C1=N\O` [7CIO, (2′Z,3′E)-7-chloroindirubin-3′-oxime]: 3.7 µM corresponded to half-maximal inhibition (IC50).
The same measure, in the same setting: the figure for `O=C1Nc2c(F)cccc2/C1=C1/Nc2ccccc2/C1=N\O` [7FIO, (2′Z,3′E)-7-fluoroindirubin-3′-oxime] is 1.5 µM; for `O=C1Nc2c(I)cccc2C1=C1Nc2ccccc2C1=NO` [7IIO, (2′Z,3′E)-7-iodoindirubin-3′-oxime] it is 66 µM.

For the next experiment, the system named is SH-SY5Y cells. As to the kind of experiment: Nuclear morphology, bisBenzimide and propidium iodide staining. Type of experiment: cell-based, human. Particulars: 24 h; 10 or 25 μM. How it is done:
Following double staining of DNA with BisBenzimide and propidium iodide, cells were examined by fluorescence microscopy. Thick arrows: apoptosis (nuclear fragmentation); thin arrows: secondary necrosis; arrow heads: pycnotic nuclei. Scale bar: 20 μm. Cell death characterization based on nuclear morphology was assessed by double staining with 0.05 μg/ml bisBenzimide and 25 μg/ml propidium iodide. Cell viability was determined by means of the MTS method. Both procedures have been previously described in detail (Ribas and Boix, 2004).
Regarding `O=C1Nc2cc(Br)ccc2C1=C1Nc2ccccc2C1=NO` [6BIO, 6-bromoindirubin-3′-oxime], the “nuclear morphology / PI staining” value is reported as “nuclear fragmentation typical of apoptosis”.

The target in a further experiment is CDK5/p25 (Homo sapiens, UniProt Q00535). As to the kind of experiment: CDK5/p25 kinase assay. Type of experiment: biochemical, mammalian.
Sequence of CDK5/p25 (Q00535 whole entry, species assumed): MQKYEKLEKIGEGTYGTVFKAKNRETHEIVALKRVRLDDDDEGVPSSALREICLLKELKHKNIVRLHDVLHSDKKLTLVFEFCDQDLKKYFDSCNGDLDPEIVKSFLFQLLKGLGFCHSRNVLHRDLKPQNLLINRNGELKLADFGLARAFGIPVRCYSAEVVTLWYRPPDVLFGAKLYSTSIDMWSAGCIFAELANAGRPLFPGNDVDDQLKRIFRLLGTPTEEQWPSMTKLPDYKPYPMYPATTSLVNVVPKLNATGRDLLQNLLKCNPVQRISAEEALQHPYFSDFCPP
Sequence of CDK5/p25 (Q15078 99-307 partner limits assumed, species assumed): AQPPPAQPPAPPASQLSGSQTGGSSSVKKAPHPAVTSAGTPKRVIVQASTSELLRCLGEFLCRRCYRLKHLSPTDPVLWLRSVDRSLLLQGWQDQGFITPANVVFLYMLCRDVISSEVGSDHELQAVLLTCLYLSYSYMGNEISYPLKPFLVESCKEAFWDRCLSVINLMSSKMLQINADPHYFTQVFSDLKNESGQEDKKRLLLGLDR
Conditions: not given
In the case of `O=C1Nc2c(Cl)cccc2/C1=C1/Nc2ccccc2/C1=N\O` [7CIO, (2′Z,3′E)-7-chloroindirubin-3′-oxime], the “inhibitory activity on CDK5/p25 (in words)” value was “weak and gradually decreasing inhibitory activity”.
For the molecule `O=C1Nc2c(F)cccc2/C1=C1/Nc2ccccc2/C1=N\O` [7FIO, (2′Z,3′E)-7-fluoroindirubin-3′-oxime], the “inhibitory activity on CDK5/p25 (in words)” value was “weak and gradually decreasing inhibitory activity”.
The same measure, in the same setting: the entry for `O=C1Nc2c(I)cccc2C1=C1Nc2ccccc2C1=NO` [7IIO, (2′Z,3′E)-7-iodoindirubin-3′-oxime] is “weak and gradually decreasing inhibitory activity”.

Staying with this experiment, now noted: 15 μM ATP.
On to `O=C1Nc2c(Cl)cccc2/C1=C1/Nc2ccccc2/C1=N\O` [7CIO, (2′Z,3′E)-7-chloroindirubin-3′-oxime], for which the IC50 – broadly, the concentration that inhibits the measured activity by half – was 6 µM.
Regarding `O=C1Nc2c(F)cccc2/C1=C1/Nc2ccccc2/C1=N\O` [7FIO, (2′Z,3′E)-7-fluoroindirubin-3′-oxime], the IC50 stood at 0.51 µM.
`O=C1Nc2c(I)cccc2C1=C1Nc2ccccc2C1=NO` [7IIO, (2′Z,3′E)-7-iodoindirubin-3′-oxime]: the IC50 came to 77 µM.

For another experiment, the system named is SH-SY5Y cells. The experiment is described as follows: SH-SY5Y cell survival, MTS reduction assay. Type of experiment: cell-based, human. Particulars: 25 μM indirubin, 48 h, 10 μM Q-VD-OPh (FIG. 10). Here is the method:
SH-SY5Y, IMR-5 and IMR-32 human neuroblastoma cell lines were grown in DMEM medium from (Biowhittaker) plus 2 mM L-glutamine from Eurobio (Courtaboeuf, France) or DMEM already supplemented with 2 mM L-glutamine (Invitrogen, Barcelona, Spain), plus antibiotics and a 10% volume of FCS (Invitrogen, Cergy Pontoise, France or Barcelona, Spain). SH-SY5Y cell lines permanently transfected with pcDNA3/Bcl-2, pcDNA3/Bcl-XL and empty pcDNA3 vectors were grown like their untransfected counterparts. However, Geneticin (G-418) selection was maintained in the growing cultures before the terminal experiments (Ribas and Boix, 2004). In order to induce differentiation, SH-SY5Y cells were cultured on collagen coated plates and treated with 10 μM RA for five days.
Cell death characterization based on nuclear morphology was assessed by double staining with 0.05 μg/ml bisBenzimide and 25 μg/ml propidium iodide. Cell viability was determined by means of the MTS method. Both procedures have been previously described in detail (Ribas and Boix, 2004). For evaluation of DNA laddering, cell DNA was extracted and electrophoresed in 1.5% agarose gels to evidence the internucleosomal fragmentation typical of apoptosis.
The effects of each indirubin was tested, at a 25 μM final concentration, on the survival of the neuroblastoma SH-SY5Y cell line after 24 h or 48 h exposure.
In general terms: Tetrazolium assays rely on reduction of a dye to a coloured formazan, in cell work by metabolically active cells.
As for `O=C1Nc2cc(Br)ccc2C1=C1Nc2ccccc2C1=NO` [6BIO, 6-bromoindirubin-3′-oxime], the “effect of Q-VD-Oph on induced cell death” value is on record as “reduced the level of cell death”.

Still in this experiment, the particulars now being: 48 h (FIG. 4).
As to `O=C1Nc2c(Cl)cccc2/C1=C1/Nc2ccccc2/C1=N\O` [7CIO, (2′Z,3′E)-7-chloroindirubin-3′-oxime], the “cell death inducing activity, position 7 halogen / N1-methyl series (MTS)” value was “equipotent”.
Still for that read-out and setting: the same measure for `O=C1Nc2c(F)cccc2/C1=C1/Nc2ccccc2/C1=N\O` [7FIO, (2′Z,3′E)-7-fluoroindirubin-3′-oxime]: “poorly active”; for `O=C1Nc2c(I)cccc2C1=C1Nc2ccccc2C1=NO` [7IIO, (2′Z,3′E)-7-iodoindirubin-3′-oxime]: “most potent compound”.

The next experiment relates to cytochome C release. As to the kind of experiment: Cytochrome C release from mitochondria. Particulars: 12.5 μM, 10 h.
`O=C1Nc2cc(Br)ccc2C1=C1Nc2ccccc2C1=NO` [6BIO, 6-bromoindirubin-3′-oxime]: the “release of cytochome C from mitochondria” value is “induced the release of cytochome C”.

The next experiment concerns effector caspase activity (DEVDase). As to the kind of experiment: Caspase (DEVDase) assay in SH-SY5Y cells. Format: cell-based, human. Particulars: 24 h dose-response; time course at 25 μM. How it is done: The value of control untreated cells is placed at time 0. DEVDase activity was measured as arbitrary fluorescence units. Every point is the mean±s.e. of at least three independent determinations. (B). […] Every point is the mean±s.e. of at least three independent determinations.
The measurement of caspase activity is based on determining the fluorescence released from the AcDEVDafc synthetic substrate after its direct addition to the culture medium, detergent lysis, and incubation at 37°. This method is devised to be applied to 96 multiwell plates. It allows kinetic determinations of caspase activation and the characterization of multiple drugs simultaneously. (Ribas et al., 2005).
With `O=C1Nc2cc(Br)ccc2C1=C1Nc2ccccc2C1=NO` [6BIO, 6-bromoindirubin-3′-oxime], the “activation of caspase activity” value is given as “dependent activation of caspase activity”.

The next experiment deals with p21^Cip1. The experiment is described as follows: p21Cip1 expression, Western blotting. Particulars: SH-SY5Y cells, 12.5 μM, 12 h. (A western blot detects proteins with antibodies after separation by electrophoresis.)
As to `O=C1Nc2cc(Br)ccc2C1=C1Nc2ccccc2C1=NO` [6BIO, 6-bromoindirubin-3′-oxime], the “induction of p21^Cip1 overexpression” value is given as “roughly equipotent at inducing”.

A further experiment concerns p53. As to the kind of experiment: p53 expression, Western blotting. Particulars: SH-SY5Y cells, 12.5 μM.
For the molecule `O=C1Nc2cc(Br)ccc2C1=C1Nc2ccccc2C1=NO` [6BIO, 6-bromoindirubin-3′-oxime], the “induction of p53” value is recorded as “only modest”.

The record behind these values is patent publication US8552053B2, “7-substituted indirubin-3′oximes and their applications” (Centre National de la Recherche Scientifique, priority 2005, dated 2013).
